Reference: PubChem BioAssay (NCI)
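Exposure lasted 48 hours, with cells grown in 96-well plates and compounds tested at five concentrations. TGI marks complete inhibition of growth.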 Where a SMILES comes first, the peptide text is derived from it. [ ]: non-standard residue; d: D form. β3hI = CC[CH](C)[CH](N)CC(=O)O

Tests used:
Assay in all cases: inhibition of tumour cell growth, NCI panel, 48 h
HOP-62 NSCLC = system: HOP-62 NSCLC
OVCAR-5 ovarian = system: OVCAR-5 ovarian
T-47D breast = system: T-47D breast
SN12C renal = system: SN12C renal
HCC-2998 colon = system: HCC-2998 colon
SF-539 CNS = system: SF-539 CNS
HOP-92 NSCLC = system: HOP-92 NSCLC
HS 578T breast = system: HS 578T breast
CAKI-1 renal = system: CAKI-1 renal
HT29 colon = system: HT29 colon
OVCAR-3 ovarian = system: OVCAR-3 ovarian
OVCAR-4 ovarian = system: OVCAR-4 ovarian
RPMI-8226 leukemia = system: RPMI-8226 leukemia
SF-268 CNS = system: SF-268 CNS
RXF 393 renal = system: RXF 393 renal

SMILES	TGI (HOP-62 NSCLC)	TGI (OVCAR-5 ovarian)	TGI (T-47D breast)	TGI (SN12C renal)	TGI (HCC-2998 colon)	TGI (SF-539 CNS)	TGI (HOP-92 NSCLC)	TGI (HS 578T breast)	TGI (CAKI-1 renal)	TGI (HT29 colon)	TGI (OVCAR-3 ovarian)	TGI (OVCAR-4 ovarian)	TGI (RPMI-8226 leukemia)	TGI (SF-268 CNS)	TGI (RXF 393 renal)
Oc1c(C2=N[C@H]3CCCC[C@@H]3N2)ccc2ccccc12	> 80.6 µM	> 100 µM	> 100 µM	> 100 µM	> 100 µM	> 100 µM	> 100 µM	> 100 µM	> 100 µM	> 100 µM	> 100 µM	> 100 µM	> 100 µM	> 100 µM	
Cc1c2c(n(Cc3ccccn3)c1C)NN=C(C#N)S2(=O)=O	> 100 µM	> 100 µM	> 100 µM	> 100 µM	> 100 µM	> 100 µM	> 100 µM	> 100 µM	> 100 µM	> 100 µM	> 100 µM	> 100 µM		> 100 µM	
COc1cccc(N2C(=O)CSC2c2cc(OC)c(OC)c(OC)c2)c1 (stereo not drawn)		> 100 µM		> 100 µM	85.2 µM	> 100 µM	> 100 µM	> 100 µM	> 100 µM	> 100 µM	66.2 µM	> 100 µM	> 100 µM	> 100 µM	
CCC(C)C(CC(=O)N1CCCC1C(=O)NC(C(=O)NC(C(=O)NCC(=O)NC(CC(N)=O)C(=O)NC(C(=O)NC(C(=O)NC(CCCCN)C(N)=O)C(C)CC)C(C)CC)C(C)C)C(C)CC)NC(=O)C(N)C(C)CC (stereo not drawn) (H-I[β3hI]PIVGNIIK-NH2; configuration not given here)	> 50 µM	> 50 µM	> 50 µM	> 50 µM		> 50 µM	> 50 µM	> 50 µM	> 50 µM	> 50 µM	> 50 µM	> 50 µM	> 50 µM	> 50 µM	
COc1ccc([C@H]2CC(=O)NCCCCN2)cc1	> 100 µM	> 100 µM		> 100 µM		> 100 µM	> 100 µM		> 100 µM	> 100 µM		> 100 µM	> 100 µM	> 100 µM	> 100 µM
COc1cccc(/C=C2\CCCCCC2=O)c1	> 100 µM	> 100 µM	> 100 µM	> 100 µM	> 100 µM		> 100 µM	> 100 µM	> 100 µM	> 100 µM	> 100 µM	> 100 µM	> 100 µM	> 100 µM	
CC(=O)O[C@H]1C(=O)[C@@]2(C)C(C(OC(=O)c3ccccc3)[C@]3(O)CC(OC(=O)C(O)C(NC(=O)c4ccc(C)cc4)c4ccccc4)C(C)=C1C3(C)C)[C@]1(OC(C)=O)CO[C@@H]1C[C@@H]2O (stereo partly drawn)	14.1 µM	3.98 µM		> 25 µM		0.0119 µM			11.1 µM		< 0.0025 µM	> 25 µM	6.77 µM	> 25 µM	0.143 µM
CCOP(=O)(OCC)/C(C#N)=C/c1cccn1CC(C)C	> 100 µM	> 100 µM	> 100 µM	> 100 µM	> 100 µM	> 100 µM	> 100 µM		> 100 µM	> 100 µM	> 100 µM			> 100 µM	> 100 µM
